Values quoted from earlier work, collected in patent publication US20190167750A1, “NUTRITIONAL SUPPLEMENTS FOR INCREASING MALE TESTOSTERONE LEVELS” (Innovus Pharmaceuticals, Inc., priority 2017, published 2019).

How the values were obtained:
P-glycoprotein = P-glycoprotein (Homo sapiens, UniProt P08183)
human CYP3A4 = human CYP3A4 (Homo sapiens, UniProt P08684)
Chain of human CYP3A4 (P08684 whole entry): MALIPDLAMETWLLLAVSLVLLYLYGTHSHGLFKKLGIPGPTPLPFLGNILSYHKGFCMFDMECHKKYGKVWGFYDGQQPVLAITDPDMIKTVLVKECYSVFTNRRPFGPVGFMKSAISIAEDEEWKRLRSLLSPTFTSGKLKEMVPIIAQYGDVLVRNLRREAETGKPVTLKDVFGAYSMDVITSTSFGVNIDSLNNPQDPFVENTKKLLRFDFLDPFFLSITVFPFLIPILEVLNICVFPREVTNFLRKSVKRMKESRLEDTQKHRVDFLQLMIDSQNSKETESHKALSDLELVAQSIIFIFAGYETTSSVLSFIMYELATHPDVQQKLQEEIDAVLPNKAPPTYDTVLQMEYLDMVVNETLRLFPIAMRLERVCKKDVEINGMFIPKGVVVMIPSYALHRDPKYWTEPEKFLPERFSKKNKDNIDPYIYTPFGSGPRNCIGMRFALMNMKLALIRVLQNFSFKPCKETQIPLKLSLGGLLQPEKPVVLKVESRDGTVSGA

Chain of P-glycoprotein (P08183 whole entry): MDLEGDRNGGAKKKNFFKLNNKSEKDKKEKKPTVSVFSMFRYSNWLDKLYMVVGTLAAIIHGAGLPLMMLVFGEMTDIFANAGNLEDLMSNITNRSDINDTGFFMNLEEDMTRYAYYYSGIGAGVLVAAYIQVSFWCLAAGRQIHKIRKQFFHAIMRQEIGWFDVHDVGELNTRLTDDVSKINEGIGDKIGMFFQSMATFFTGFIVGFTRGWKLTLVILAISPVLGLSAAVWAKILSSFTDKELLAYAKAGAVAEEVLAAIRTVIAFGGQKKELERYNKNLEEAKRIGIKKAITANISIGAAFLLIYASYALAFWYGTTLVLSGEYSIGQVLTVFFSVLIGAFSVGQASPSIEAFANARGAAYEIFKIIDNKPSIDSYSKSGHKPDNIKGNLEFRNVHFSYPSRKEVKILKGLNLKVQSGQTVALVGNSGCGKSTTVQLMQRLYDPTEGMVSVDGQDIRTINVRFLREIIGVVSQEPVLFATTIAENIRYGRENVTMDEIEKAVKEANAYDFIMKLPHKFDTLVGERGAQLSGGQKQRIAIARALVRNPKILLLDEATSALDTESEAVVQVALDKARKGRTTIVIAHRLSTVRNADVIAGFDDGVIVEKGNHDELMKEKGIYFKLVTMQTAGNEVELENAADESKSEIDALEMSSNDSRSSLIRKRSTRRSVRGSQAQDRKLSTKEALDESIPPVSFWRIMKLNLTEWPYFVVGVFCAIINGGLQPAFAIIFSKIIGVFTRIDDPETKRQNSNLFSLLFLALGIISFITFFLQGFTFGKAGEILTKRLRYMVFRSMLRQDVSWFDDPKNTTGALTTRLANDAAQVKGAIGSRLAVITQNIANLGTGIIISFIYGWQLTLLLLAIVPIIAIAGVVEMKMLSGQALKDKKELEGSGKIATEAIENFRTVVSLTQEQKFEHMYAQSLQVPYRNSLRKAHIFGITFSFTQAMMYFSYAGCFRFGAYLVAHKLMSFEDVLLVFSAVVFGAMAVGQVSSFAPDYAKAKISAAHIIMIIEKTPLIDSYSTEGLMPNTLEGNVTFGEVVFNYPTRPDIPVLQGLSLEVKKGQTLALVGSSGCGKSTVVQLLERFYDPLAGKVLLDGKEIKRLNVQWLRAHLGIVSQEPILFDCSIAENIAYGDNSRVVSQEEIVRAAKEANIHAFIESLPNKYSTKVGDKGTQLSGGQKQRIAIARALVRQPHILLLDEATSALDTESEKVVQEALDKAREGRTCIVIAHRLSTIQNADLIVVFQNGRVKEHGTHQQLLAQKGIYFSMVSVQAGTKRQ

Question: Which results are given for `O=C(/C=C/C=C/c1ccc2c(c1)OCO2)N1CCCCC1` [Bioperine, (2E,4E)-5-(1,3-benzodioxol-5-yl)-1-(piperidin-1-yl)penta-2,4-dien-1-one]?
Answer: inhibition of P-glycoprotein (P-glycoprotein): inhibits; inhibition of human CYP3A4 (human CYP3A4): inhibits
